{
  "source": "patent US9498506B2",
  "about": "“Pharmaceutical composition for preventing or treating thyroid diseases, comprising extract from Lonicera caerulea L. var. edulis fruits as active ingredient” (H&K BIOSCIENCE CO., LTD., priority 2013, dated 2016)",
  "format_in_all_cases": "in vivo",
  "key": {"[1]": {"system": "PTU-induced hypothyroidism rat", "assay": "Change in weight, PTU-induced hypothyroidism animal model", "details": "PTU-induced hypothyroidism rats", "experimental": "(§1) Experimental animals are the same as described in Experimental Example 3.\n(§2) Based on conventional methods known in the art (Neuro Endocrinol Lett. 1999; 20:311-14; Toxicol Sci. 2002; 69:79-91; Korean J Orient Physiol Pathol. 2010; 24:630-7), a hypothyroidism animal model was prepared by administering Propylthiouracil (PTU). Specifically, hypothyroidism was induced by dissolving 100 mg of PTU into 10 ml of saline solution and subcutaneously injecting the capacity of 1 ml/kg into dorsal neck of the animal model once everyday for a period of 28 days. On the other hand, in the intact control group, the same amount of saline solution instead of PTU was administered for the same period in the same manner as described above (FIG. 5).\n(§3) Targeting the hypothyroidism animal prepared as above, 500, 250, and 125 mg/kg of the extract from Lonicera caerulea L. car. Edulis fruits (BH) prepared in Example 1-1 were dissolved in sterilized distilled water, respectively, and the capacity of 5 ml/kg was orally administered forcibly once a day for 42 consecutive days, 2 weeks prior to the PTU treatment. On the other hand, LF, an experimental group, was also dissolved in sterilized distilled water, and the capacity of 250 mg/kg was orally administered for the same period in the manner as described above.\n(§4) 0.5 mg/kg of LT4 was dissolved in saline solution, and the capacity of 1 ml/kg was intraperitoneally administered once a day for 28 consecutive days since the PTU treatment day in the same manner as described above (Table 6, FIG. 5).\nNext, the effects on treating hypothyroidism was confirmed by observing the weight change, thyroid weight change, content change in blood thyroid hormone (TSH, T3, and T4), and histopathological changes in the thyroid (the total thickness of thyroid in which the cells have been cut and average diameter of thyroid follicle) of the rats for each group. […]"}, "[2]": {"system": "PTU-induced hypothyroidism rat", "assay": "Change in the thyroid weight, PTU-induced hypothyroidism animal model", "details": "PTU-induced hypothyroidism rats; 0.5 mg/kg intraperitoneally", "experimental": "as §1, §2\nas §3, with “above. […]” for “above.”"}, "[3]": {"system": "PTU-induced hypothyroidism rat", "assay": "Thyroid hormone content in blood, PTU-induced hypothyroidism animal model", "details": "PTU-induced hypothyroidism rats; 0.5 mg/kg intraperitoneally", "experimental": "as §1, §2, §3, §4\n(§5) Next, the effects on treating hypothyroidism was confirmed by observing the weight change, thyroid weight change, content change in blood thyroid hormone (TSH, T3, and T4), and histopathological changes in the thyroid (the total thickness of thyroid in which the cells have been cut and average diameter of thyroid follicle) of the rats for each group."}, "[4]": {"system": "PTU-induced hypothyroidism rat", "assay": "Histopathological observation of thyroid, PTU-induced hypothyroidism animal model", "details": "PTU-induced hypothyroidism rats; 0.5 mg/kg intraperitoneally", "experimental": "as §1, §2\nas §3, with “above. […]” for “above.”"}, "[5]": {"system": "PTU-induced hypothyroidism rat", "assay": "Change in the weight of reproductive organs, PTU-induced hypothyroidism animal model", "details": "PTU-induced hypothyroidism rats; 0.5 mg/kg intraperitoneally", "experimental": "as §1, §2, §3, §4"}, "[6]": {"system": "PTU-induced hypothyroidism rat", "assay": "Content of sex hormones in serum, PTU-induced hypothyroidism animal model", "details": "PTU-induced hypothyroidism rats; LT4 0.5 mg/kg intraperitoneally", "experimental": "as §1, §2, §3, §4"}, "[7]": {"system": "PTU-induced hypothyroidism rat", "assay": "Testicular antioxidant defense system, PTU-induced hypothyroidism animal model", "details": "testis, PTU-induced hypothyroidism rats; 0.5 mg/kg intraperitoneally", "experimental": "as §1, §2, §3, §4"}, "[8]": {"system": "PTU-induced hypothyroidism rat", "assay": "Histopathological observation of reproductive organs, PTU-induced hypothyroidism animal model", "details": "PTU-induced hypothyroidism rats; 0.5 mg/kg intraperitoneally", "experimental": "as §1, §2, §3, §4"}, "[9]": {"system": "LT4-induced hyperthyroidism rat", "assay": "Change in weight, LT4-induced hyperthyroidism animal model", "details": "LT4-induced hyperthyroidism rats", "experimental": "(§6) Total number of 150 male SPF. VAF Outbred-Rats, Crl:CD [Sprague-Dawley, SD] rats (6 weeks old, OrientBio, Seungnam, Korea) were prepared and refined for 8 days in a laboratory environment. After that, rats with consistent weight (average: 233.70 g±10.47 g, 217 g to 252 g) were selected, and 8 rats per group (total of 56 rats) were used for the experiment. In the present invention, all the experimental animals were treated according to animal ethics of the animal experimentation ethics committee of Daegu Haany University. The experiment was conducted after pre-approval.\n(§7) Based on conventional methods known in the art (Clin Exp Pharmacol Physiol. 2007 November; 34(11):1217-9, etc.), a hyperthyroidism animal model was prepared by administering LT4 (levothyroxine). Specifically, hyperthyroidism was induced by dissolving 3 mg of LT4 into 10 ml of saline solution and subcutaneously injecting the capacity of 1 ml/kg into dorsal neck of the animal model once everyday for a period of 27 days. On the other hand, in the intact control group, the same amount of saline solution instead of LT4 was administered for the same period in the same manner as described above (FIG. 1).\n(§8) Targeting the hyperthyroidism animal prepared as above, 500, 250, and 125 mg/kg of the extract from Lonicera caerulea L. car. Edulis fruits (BH) prepared in Example 1-1 were dissolved in sterilized distilled water, respectively, and the capacity of 5 ml/kg was orally administered forcibly once a day from Day 12 to Day 15 since the treatment.\n(§9) On the other hand, Lonicerae Flos aqueous hot water extract (LF), an experimental group, was also dissolved in sterilized distilled water, and the capacity of 250 mg/kg was orally administered for the same period in the same manner as described above. 10 mg/kg of PTU was dissolved in saline solution, and the capacity of 1 ml/kg was intraperitoneally administered for the same period in the same manner as described above (Table 1, FIG. 1).\nas §5, with “hyperthyroidism” for “hypothyroidism”, “change” for “changes”, “cut,” for “cut and”, “follicle, and thickness of thyroid epithelium)” for “follicle)”"}, "[10]": {"system": "LT4-induced hyperthyroidism rat", "assay": "Change in the weight of thyroid, LT4-induced hyperthyroidism animal model", "details": "LT4-induced hyperthyroidism rats; 10 mg/kg intraperitoneally", "experimental": "as §6\nBased on conventional methods known in the art (Clin Exp Pharmacol Physiol. 2007 November; 34(11):1217-9, etc.), a hyperthyroidism animal model was prepared by administering LT4 (levothyroxine). […]\nOn the final day of sacrifice, left thyroids of all the experimental animals were extracted and isolated and next, the weight was measured and designated as the absolute weight. In order to minimize the secondary change accompanied with the change in weight, relative thyroid gland weight (Absolute […] weight/body weight at sacrifice ×100), which was the ratio of the absolute weight of the thyroid based on body weight, was calculated."}, "[11]": {"system": "LT4-induced hyperthyroidism rat", "assay": "Thyroid hormone content in blood (radioimmunoassay), LT4-induced hyperthyroidism animal model", "details": "LT4-induced hyperthyroidism rats; 10 mg/kg intraperitoneally", "experimental": "as §6, §7, §8\nOn the other hand, Lonicerae Flos aqueous hot water extract (LF), an experimental group, was also dissolved in sterilized distilled water, and the capacity of 250 mg/kg was orally administered for the same period in the same manner as described above. […]\nThe TSH, T3, and T4 contents in blood were measured in the units including ng/ml or μg/ml by Gamma count Cobra II (Packard Co., IL, USA) utilizing Coat A count Total TSH, T3 or T4 kit (DPC, CA, USA), respectively, based on Radioimmunoassay method (Toxicol Sci 69(1): 79-91, 2002)."}, "[12]": {"system": "LT4-induced hyperthyroidism rat", "assay": "Histopathological observation of thyroid, LT4-induced hyperthyroidism animal model", "details": "LT4-induced hyperthyroidism rats; 10 mg/kg intraperitoneally", "experimental": "as §6, §7, §8\nas §9, with “1). […]” for “1).”"}},
  "note": "Marks after values point to notes of the source that are not given here.",
  "data": [
    {"compound": "N[C@@H](Cc1cc(I)c(Oc2cc(I)c(O)c(I)c2)c(I)c1)C(=O)O", "note": "[LT4, Levothyroxine]", "values": [
      {"measurement": "Body weight gains during 4 weeks of PTU treatment", "setting": "[1]; 0.5 mg/kg intraperitoneally", "result": "45.50 ± 14.55^fg"},
      {"measurement": "Body weight gains during 6 weeks of total experiments", "setting": "[1]; 0.5 mg/kg intraperitoneally", "result": "173.00 ± 16.75^ab"},
      {"measurement": "Body weight gains during 2 weeks of test material pretreatment", "setting": "[1]; 0.5 mg/kg intraperitoneally group, period before LT4 and PTU dosing, in g (unit assumed)", "result": "127.50 ± 13.15"},
      {"measurement": "Absolute organ weights Thyroid gland", "setting": "[2]", "result": "0.012 ± 0.003^c g"},
      {"measurement": "Relative organ weights Thyroid gland", "setting": "[2]", "result": "0.003 ± 0.001^c % of body weights"},
      {"measurement": "Serum thyroid hormone levels TSH", "setting": "[3]", "result": "10.74 ± 1.62^bc ng/ml"},
      {"measurement": "Serum thyroid hormone levels Thyroxine", "setting": "[3]", "result": "6.75 ± 1.45^e μg/ml"},
      {"measurement": "Serum thyroid hormone levels Tri-iodothyronine", "setting": "[3]", "result": "19.24 ± 3.21^a ng/ml"},
      {"measurement": "Thyroid gland Mean follicular diameters", "setting": "[4]", "result": "102.24 ± 12.47^ac μm/follicle"},
      {"measurement": "Thyroid gland Total thickness", "setting": "[4]", "result": "1542.77 ± 137.07^bc μm/central regions"},
      {"measurement": "Absolute organ weights Epididymis", "setting": "[5]", "result": "0.342 ± 0.042^ac g"},
      {"measurement": "Absolute organ weights Prostate", "setting": "[5]", "result": "0.492 ± 0.042^ef g"},
      {"measurement": "Absolute organ weights Testis", "setting": "[5]", "result": "1.082 ± 0.045^eg"},
      {"measurement": "Relative organ weights Epididymis", "setting": "[5]", "result": "0.086 ± 0.012^gi % of body weights"},
      {"measurement": "Relative organ weights Prostate", "setting": "[5]", "result": "0.124 ± 0.013^gf % of body weights"},
      {"measurement": "Relative organ weights Testis", "setting": "[5]", "result": "0.273 ± 0.021^ac % of body weights"},
      {"measurement": "Serum male reproductive hormone levels DHT", "setting": "[6]", "result": "98.00 ± 13.43^ab pg/ml"},
      {"measurement": "Serum male reproductive hormone levels FSH", "setting": "[6]", "result": "21.01 ± 1.65^ab ng/ml"},
      {"measurement": "Serum male reproductive hormone levels Testosterone", "setting": "[6]", "result": "1.45 ± 0.18^fi ng/ml"},
      {"measurement": "Antioxidant defense system Catalase", "setting": "[7]", "result": "8.63 ± 2.13^eg U/mg protein"},
      {"measurement": "Antioxidant defense system H2O2", "setting": "[7]", "result": "80.63 ± 16.27^ab nM/mg protein"},
      {"measurement": "Antioxidant defense system SOD", "setting": "[7]", "result": "8.50 ± 2.00^eg U/mg protein"},
      {"measurement": "Lipid peroxidation Malondialdehyde", "setting": "[7]", "result": "5.54 ± 0.91", "unit": "nM/mg protein"},
      {"measurement": "Epididymis A/O tubule percentages", "setting": "[8]", "result": "56.00 ± 7.52^df %/mm^2"},
      {"measurement": "Epididymis Mean tubular diameters", "setting": "[8]", "result": "217.98 ± 14.97^df μm/tubules of head"},
      {"measurement": "Prostate Atrophic tubule percentage", "setting": "[8]", "result": "73.50 ± 10.80^ab %/mm^2"},
      {"measurement": "Prostate Mean tubular epithelial thickness", "setting": "[8]", "result": "11.82 ± 2.76^df μm/tubules"},
      {"measurement": "Testis Mean semniferous tubule diameters", "setting": "[8]", "result": "195.00 ± 13.29^df μm/tubules"},
      {"measurement": "Testis Stage I~II semniferous tubule percentages", "setting": "[8]", "result": "15.63 ± 2.39^df %/mm^2"}
    ]},
    {"compound": "CCCc1cc(=O)[nH]c(=S)[nH]1", "note": "[PTU, 6-n-propyl-2-thiouracil]", "values": [
      {"measurement": "Body weight gains during 15 days of PTU and herbal extracts treatment", "setting": "[9]; 10 mg/kg intraperitoneally", "result": "58.75 ± 15.04^ab"},
      {"measurement": "Body weight gains during 27 days of total experiments", "setting": "[9]; 10 mg/kg intraperitoneally", "result": "113.63 ± 24.49^ab"},
      {"measurement": "days after administration from which weight was considerably increased compared to LT4 control", "setting": "[9]; 10 mg/kg intraperitoneally", "result": 5, "unit": "days"},
      {"measurement": "Body weight gains during 12 days of LT4 pretreatment", "setting": "[9]; 10 mg/kg intraperitoneally group, period before test substance dosing", "result": "54.50 ± 13.15^d"},
      {"measurement": "Absolute organ weights Thyroid gland", "setting": "[10]", "result": "8.88 ± 2.03^h mg"},
      {"measurement": "Relative organ weights (% of BW) Thyroid gland", "setting": "[10]", "result": "2.71 ± 0.64^c mg/g of BW"},
      {"measurement": "Serum thyroid hormone levels TSH", "setting": "[11]", "result": "1.37 ± 0.24^ac ng/ml"},
      {"measurement": "Serum thyroid hormone levels Thyroxine", "setting": "[11]", "result": "71.30 ± 23.13^bc μg/ml"},
      {"measurement": "Serum thyroid hormone levels Tri-iodothyronine", "setting": "[11]", "result": "0.80 ± 0.18^ac ng/ml"},
      {"measurement": "Thyroid glands Mean follicular epithelium thickness", "setting": "[12]", "result": "14.50 ± 2.84^gh μm/follicle"},
      {"measurement": "Thyroid glands Mean follicular thickness", "setting": "[12]", "result": "71.87 ± 12.05^c μm/follicle"},
      {"measurement": "Thyroid glands Total thickness", "setting": "[12]", "result": "1628.19 ± 174.84^ac μm/central region"}
    ]}
  ]
}
